≈ marks a conversion by molar mass, not a printed value.
How the values were obtained:
Histoplasma capsulatum = type: cell-based; conditions: RPMI 1640, MOPS pH 7
[1] = tested on: Candida tropicalis ATCC 750; assay: MIC, NCCLS M27A broth dilution; type: cell-based; conditions: RPMI 1640, MOPS pH 7
Candida glabrata 90030 = assay: MIC, NCCLS M27A broth dilution; type: cell-based; conditions: RPMI 1640, MOPS pH 7
[2] = tested on: Aspergillus fumigatus Si-I; assay: MIC, NCCLS M38P broth dilution; type: cell-based; conditions: RPMI 1640, MOPS pH 7
[3] = tested on: Cryptococcus neoformans I; assay: MIC, NCCLS M27A broth dilution; type: cell-based; conditions: RPMI 1640, MOPS pH 7
[4] = tested on: Candida brusei ATCC 6258 (QC); assay: MIC, NCCLS M27A broth dilution; type: cell-based; conditions: RPMI 1640, MOPS pH 7
Candida krusel 766.1 = assay: MIC, NCCLS M27A broth dilution; type: cell-based; conditions: RPMI 1640, MOPS pH 7
Candida albicans Y-01-19 = assay: MIC, NCCLS M27A broth dilution; type: cell-based; conditions: RPMI 1640, MOPS pH 7
[5] = tested on: Candida albicans ATCC 36082; assay: MIC, NCCLS M27A broth dilution; type: cell-based; conditions: RPMI 1640, MOPS pH 7
[6] = tested on: Aspergillus fumigatus 1008; assay: MIC, NCCLS M38P broth dilution; type: cell-based; conditions: RPMI 1640, MOPS pH 7
[7] = tested on: Cryptococcus neoformans M 106; assay: MIC, NCCLS M27A broth dilution; type: cell-based; conditions: RPMI 1640, MOPS pH 7
[8] = tested on: Candida parapsilosis ATCC 22019 (QC); assay: MIC, NCCLS M27A broth dilution; type: cell-based; conditions: RPMI 1640, MOPS pH 7
[9] = tested on: Paecilomyces variotti ATCC 22319 (QC); assay: MIC, NCCLS broth dilution; type: cell-based; conditions: RPMI 1640, MOPS pH 7
Candida albicans 1122 = assay: MIC, NCCLS M27A broth dilution; type: cell-based; conditions: RPMI 1640, MOPS pH 7
Candida albicans 1162 = assay: MIC, NCCLS M27A broth dilution; type: cell-based; conditions: RPMI 1640, MOPS pH 7
ergosterol P450DM [10] = target: T1, ergosterol P450DM (Candida albicans, UniProt P10613); conditions: C. albicans lysates; relative to fluconazole; cited from earlier work
T1 construct: host or cells: C. albicans lysates

ergosterol P450DM [11] = conditions: A. fumigatus lysates; relative to fluconazole; cited from earlier work

T1 sequence (P10613 whole entry): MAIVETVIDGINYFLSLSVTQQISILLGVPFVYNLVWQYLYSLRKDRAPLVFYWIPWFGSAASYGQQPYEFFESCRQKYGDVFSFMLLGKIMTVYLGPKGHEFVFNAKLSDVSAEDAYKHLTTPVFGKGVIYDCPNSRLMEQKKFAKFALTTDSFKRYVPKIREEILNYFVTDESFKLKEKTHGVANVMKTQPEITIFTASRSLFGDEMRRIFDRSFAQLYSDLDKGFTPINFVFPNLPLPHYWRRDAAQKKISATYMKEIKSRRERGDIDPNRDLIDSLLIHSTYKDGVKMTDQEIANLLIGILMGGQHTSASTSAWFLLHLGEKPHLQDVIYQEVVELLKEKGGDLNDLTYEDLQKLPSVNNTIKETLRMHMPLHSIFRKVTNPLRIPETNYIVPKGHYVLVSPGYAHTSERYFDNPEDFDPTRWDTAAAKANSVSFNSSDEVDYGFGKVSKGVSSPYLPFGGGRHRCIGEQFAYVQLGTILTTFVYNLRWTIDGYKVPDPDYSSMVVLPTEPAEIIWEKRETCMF

2-[(5R,3S)-5-(2,4-Difluorophenyl)-tetrahydro-5-(1H-1,2,4-triazol-1yl-methyl)-furan-3-yl-methyl]-4-[4-(phenyl)-1,2,4-triazol-1-yl]-2,4-dihydro-3(2H,4H)-1,2,4-triazolone [Compound No. 2]
MIC (Histoplasma capsulatum): 16 µg/mL | MIC [1]: 0.5 µg/mL | MIC (Candida glabrata 90030): 16 µg/mL | MIC [2]: 16 µg/mL | MIC [3]: 8 µg/mL | MIC [4]: 8 µg/mL | MIC (Candida krusel 766.1): 16 µg/mL | MIC (Candida albicans Y-01-19): 16 µg/mL | MIC [5]: 0.125 µg/mL | MIC [6]: 16 µg/mL | MIC [7]: 8 µg/mL | MIC [8]: 8 µg/mL | MIC [9]: 8 µg/mL

2-[(5R,3S)-5-(2,4-Difluorophenyl)-tetrahydro-5-(1H-1,2,4-triazol-1yl-methyl)-furan-3-yl-methyl]-4-{4-[4-(phenyl)-1-piperazinyl]-chlorophenyl}-2,4-dihydro-3(2H,4H-1,2,4-triazolone [Compound No. 5]
MIC (Histoplasma capsulatum): 0.25 µg/mL | MIC [1]: 0.03 µg/mL | MIC (Candida glabrata 90030): 1 µg/mL | MIC [2]: 1 µg/mL | MIC [3]: < 0.03 µg/mL | MIC [4]: 0.25 µg/mL | MIC (Candida krusel 766.1): 1 µg/mL | MIC (Candida albicans Y-01-19): 0.125 µg/mL | MIC [5]: 0.03 µg/mL | MIC [6]: 2 µg/mL | MIC [7]: 0.125 µg/mL | MIC [8]: 0.03 µg/mL | MIC [9]: 1 µg/mL

O=c1n(-c2ccc(O)cc2)cnn1C[C@H]1CO[C@@](Cn2cncn2)(c2ccc(F)cc2F)C1 [Compound No. 3]
MIC (Histoplasma capsulatum): 16 µg/mL (≈ 35.2 µM) | MIC [1]: 16 µg/mL (≈ 35.2 µM) | MIC (Candida glabrata 90030): 16 µg/mL (≈ 35.2 µM) | MIC [2]: > 16 µg/mL | MIC [3]: 8 µg/mL (≈ 17.6 µM) | MIC [4]: 16 µg/mL (≈ 35.2 µM) | MIC (Candida krusel 766.1): 16 µg/mL (≈ 35.2 µM) | MIC (Candida albicans Y-01-19): 8 µg/mL (≈ 17.6 µM) | MIC [5]: 16 µg/mL (≈ 35.2 µM) | MIC [6]: > 16 µg/mL | MIC [7]: 8 µg/mL (≈ 17.6 µM) | MIC [8]: 16 µg/mL (≈ 35.2 µM) | MIC [9]: > 16 µg/mL

O=c1n(-c2ccc(Cn3cncn3)cc2)cnn1C[C@@H]1CO[C@@](Cn2cncn2)(c2ccc(F)cc2F)C1 [Compound No. 4]
MIC (Histoplasma capsulatum): 16 µg/mL (≈ 30.8 µM) | MIC [1]: 16 µg/mL (≈ 30.8 µM) | MIC (Candida glabrata 90030): 16 µg/mL (≈ 30.8 µM) | MIC [2]: 16 µg/mL (≈ 30.8 µM) | MIC [3]: 8 µg/mL (≈ 15.4 µM) | MIC [4]: 16 µg/mL (≈ 30.8 µM) | MIC (Candida krusel 766.1): 16 µg/mL (≈ 30.8 µM) | MIC (Candida albicans Y-01-19): 16 µg/mL (≈ 30.8 µM) | MIC [5]: 2 µg/mL (≈ 3.85 µM) | MIC [6]: 16 µg/mL (≈ 30.8 µM) | MIC [7]: 8 µg/mL (≈ 15.4 µM) | MIC [8]: 8 µg/mL (≈ 15.4 µM) | MIC [9]: 16 µg/mL (≈ 30.8 µM)

O=c1n(-c2ccc(OCc3ccccc3)cc2)cnn1C[C@H]1CO[C@@](Cn2cncn2)(c2ccc(F)cc2F)C1 [Compound No. 6, 2-[(5R,3S)-5-(2,4-Difluorophenyl)-tetrahydro-5-(1H-1,2,4-triazol-1yl-methyl)-furan-3-yl-methyl]-4-[4-(benzyloxy)-phenyl]-2,4-dihydro-3(2H,4H)-1,2,4-triazolone]
MIC (Histoplasma capsulatum): 0.5 µg/mL (≈ 0.918 µM) | MIC [1]: 0.06 µg/mL (≈ 0.11 µM) | MIC (Candida glabrata 90030): 2 µg/mL (≈ 3.67 µM) | MIC [2]: 16 µg/mL (≈ 29.4 µM) | MIC [3]: 2 µg/mL (≈ 3.67 µM) | MIC [4]: 4 µg/mL (≈ 7.35 µM) | MIC (Candida krusel 766.1): 8 µg/mL (≈ 14.7 µM) | MIC (Candida albicans Y-01-19): 1 µg/mL (≈ 1.84 µM) | MIC [5]: 0.03 µg/mL (≈ 0.0551 µM) | MIC [6]: 16 µg/mL (≈ 29.4 µM) | MIC [7]: 2 µg/mL (≈ 3.67 µM) | MIC [8]: 0.25 µg/mL (≈ 0.459 µM) | MIC [9]: 16 µg/mL (≈ 29.4 µM)

O=c1n(-c2ccc(N3CCN(c4ccc(OCc5ccccc5)cc4)CC3)cc2)cnn1C[C@H]1CO[C@@](Cn2cncn2)(c2ccc(F)cc2F)C1 [Compound No. 7, 2-[(5R,3S)-5-(2,4-Difluorophenyl)-tetrahydro-5-(1H-1,2,4-triazol-1yl-methyl)-furan-3-yl-methyl]-4-{4-[4-[4-(benzyloxy)-phenyl]-1-piperazinyl]-phenyl}-2,4-dihydro-3(2H,4H)-1,2,4-triazolone]
MIC (Histoplasma capsulatum): 16 µg/mL (≈ 22.7 µM) | MIC [1]: 0.125 µg/mL (≈ 0.177 µM) | MIC (Candida glabrata 90030): 16 µg/mL (≈ 22.7 µM) | MIC [2]: 16 µg/mL (≈ 22.7 µM) | MIC [3]: 0.06 µg/mL (≈ 0.0851 µM) | MIC [4]: 8 µg/mL (≈ 11.4 µM) | MIC (Candida krusel 766.1): 16 µg/mL (≈ 22.7 µM) | MIC (Candida albicans Y-01-19): 16 µg/mL (≈ 22.7 µM) | MIC [5]: < 0.03 µg/mL | MIC [6]: 16 µg/mL (≈ 22.7 µM) | MIC [7]: 0.125 µg/mL (≈ 0.177 µM) | MIC [8]: 0.125 µg/mL (≈ 0.177 µM) | MIC [9]: 1 µg/mL (≈ 1.42 µM)

O=c1n(-c2ccc(-n3cnnn3)cc2)cnn1C[C@@H]1CO[C@@](Cn2cncn2)(c2ccc(F)cc2F)C1 [Compound No. 9, 2-[(5R,3R)-5-(2,4-Difluorophenyl)-tetrahydro-5-(1H-1,2,4-triazol-1yl-methyl)-furan-3-yl-methyl]-4-[4-(1,2,3,4-tetrazol-1-yl)-phenyl]-2,4-dihydro-3(2H,4H)-1,2,4-triazolone]
MIC (Histoplasma capsulatum): 64 µg/mL (≈ 126 µM) | MIC [1]: 8 µg/mL (≈ 15.8 µM) | MIC (Candida albicans 1122): 4 µg/mL (≈ 7.9 µM) | MIC (Candida glabrata 90030): 64 µg/mL (≈ 126 µM) | MIC (Candida albicans 1162): 64 µg/mL (≈ 126 µM) | MIC [2]: ≧128 g/ml | MIC [3]: 32 µg/mL (≈ 63.2 µM) | MIC [4]: 64 µg/mL (≈ 126 µM) | MIC (Candida krusel 766.1): 64 µg/mL (≈ 126 µM) | MIC (Candida albicans Y-01-19): 64 µg/mL (≈ 126 µM) | MIC [6]: > 128 µg/mL | MIC [7]: 8 µg/mL (≈ 15.8 µM) | MIC [8]: 16 µg/mL (≈ 31.6 µM) | MIC [9]: 32 µg/mL (≈ 63.2 µM)

C[C@@H](c1ncncc1F)[C@](O)(Cn1cncn1)c1ccc(F)cc1F [Voriconazole]
greater inhibition of ergosterol P450DM compared to fluconazole (ergosterol P450DM [10]): 1.6 fold | greater inhibition of ergosterol P450DM compared to fluconazole (ergosterol P450DM [11]): 160 fold

Reference: patent US20050261330A1, “Derivatives of 2,2,4-trisubstituted tetrahydrofuran an antifungal agents” (priority 2002, published 2005)
